Assay results as given in patent publication US10421761B2, “Compounds for kinase modulation, and indications therefor” (Plexxikon Inc., priority 2013, dated 2019).
Entries after “also recorded” stand apart in the source; their conditions may differ. Read-outs that look alike come from different tables or passages of the source.

Tests used:
[1] = tested on: B9 (HRAS Q61L) cell line; assay: B9 P-ERK cell activation assay (AlphaScreen); assay type: cell-based, mouse; conditions: for EC50: Mus musculus, P-ERK cell activation, B9, numeric bounds, read-out: Cell activity (EC50 μM) B9_pERK
Protocol: (§1) B9 is a squamous cell carcinoma cell line expressing activated HRAS that was isolated from a DMBA/TPA-induced mouse model of skin carcinogenesis (Stoler, et al. The Journal of Cell Biology, 1993, 122(5), 1103-17). IPC-298 is a human melanoma cell line that expresses activated NRAS (Aubert, et al. International Journal of Cancer, 1993, 54(5), 784-92). To determine whether compounds induce phosphorylated ERK and MEK, cells are plated in a 96-well dish and treated with an 8-point titration of compound for one hour at 37° C. The media is then removed and the cells are incubated with lysis buffer containing protease and phosphatase inhibitors. Phosphorylated ERK and MEK in the resulting lysates is detected using AlphaScreen™ technology. To detect phosphorylated ERK, cell lysates are incubated with streptavidin-coated donor beads, anti-mouse IgG acceptor beads, a biotinylated anti-ERK1/2 rabbit antibody, and a mouse antibody that recognizes ERK1/2 only when it is phosphorylated on Thr202 and Tyr204. The biotinylated ERK1/2 antibody will bind to both the streptavidin-coated donor beads and to ERK1/2 (regardless of its phosphorylation state), and the phospho-ERK1/2 antibody will bind to the acceptor beads and to ERK1/2 that is phosphorylated at Thr202/Tyr204. Excitation of the beads with laser light at 680 nm produces singlet oxygen, which is rapidly quenched unless the beads are in close proximity. When ERK is phosphorylated, both antibodies can bind the same protein, bringing the donor and acceptor beads into close proximity, producing a signal that can be measured at 580 nm. MEK phosphorylation is detected using a similar approach, only with antibodies directed against total MEK1/2 and MEK1/2 that is phosphorylated at Ser217 and Ser221.
(§2) Phospho-ERK AlphaScreen® assay. To determine the effects of compound treatment upon phosphorylation of ERK1/2, cells were plated in a 96-well dish and treated with an 8-point titration of compound for one hour at 37° C. before lysis. To detect pERK, cell lysates were incubated with streptavidin-coated AlphaScreen® donor beads, anti-mouse IgG AlphaScreen® acceptor beads, a biotinylated anti-ERK1/2 rabbit antibody, and a mouse antibody that recognizes ERK1/2 only when it is phosphorylated on Thr202 and Tyr204. The biotinylated ERK1/2 antibody binds to both the streptavidin-coated AlphaScreen® donor beads and to ERK1/2 (regardless of its phosphorylation state), and the phospho-ERK1/2 antibody binds to the acceptor beads and to ERK1/2 that is phosphorylated at Thr202/Tyr204. An increase in ERK1/2 phosphorylation at Thr202/Tyr204 brings the donor and acceptor AlphaScreen® beads into close proximity, generating a signal that can be quantified on an EnVision reader (Perkin Elmer).

[2] = tested on: IPC-298 (NRAS Q61L) cell line; assay: IPC-298 P-ERK cell activation assay (AlphaScreen); assay type: cell-based, human; conditions: for EC50: Homo sapiens, P-ERK cell activation, IPC-298, read-out: Cell activity (EC50 μM) IPC-298_P-ERK
Protocol: as §1, §2

[3] = tested on: A375 (BRAF V600E) cell line; assay: A375 P-ERK inhibition assay (AlphaScreen); assay type: cell-based, human; conditions: for IC50: Homo sapiens, A-375, A375_P-ERK
Protocol: as §2

[4] = target: T1, BRAF V600E (Homo sapiens, UniProt P15056, V600E); assay: BRAF V600E biochemical kinase activity assay (AlphaScreen, biotin-MEK1 substrate); conditions: BRAF V600E biochemical inhibitory activity
T1 construct: purchased Upstate Biotechnology
T1 sequence (P15056 whole entry V600E): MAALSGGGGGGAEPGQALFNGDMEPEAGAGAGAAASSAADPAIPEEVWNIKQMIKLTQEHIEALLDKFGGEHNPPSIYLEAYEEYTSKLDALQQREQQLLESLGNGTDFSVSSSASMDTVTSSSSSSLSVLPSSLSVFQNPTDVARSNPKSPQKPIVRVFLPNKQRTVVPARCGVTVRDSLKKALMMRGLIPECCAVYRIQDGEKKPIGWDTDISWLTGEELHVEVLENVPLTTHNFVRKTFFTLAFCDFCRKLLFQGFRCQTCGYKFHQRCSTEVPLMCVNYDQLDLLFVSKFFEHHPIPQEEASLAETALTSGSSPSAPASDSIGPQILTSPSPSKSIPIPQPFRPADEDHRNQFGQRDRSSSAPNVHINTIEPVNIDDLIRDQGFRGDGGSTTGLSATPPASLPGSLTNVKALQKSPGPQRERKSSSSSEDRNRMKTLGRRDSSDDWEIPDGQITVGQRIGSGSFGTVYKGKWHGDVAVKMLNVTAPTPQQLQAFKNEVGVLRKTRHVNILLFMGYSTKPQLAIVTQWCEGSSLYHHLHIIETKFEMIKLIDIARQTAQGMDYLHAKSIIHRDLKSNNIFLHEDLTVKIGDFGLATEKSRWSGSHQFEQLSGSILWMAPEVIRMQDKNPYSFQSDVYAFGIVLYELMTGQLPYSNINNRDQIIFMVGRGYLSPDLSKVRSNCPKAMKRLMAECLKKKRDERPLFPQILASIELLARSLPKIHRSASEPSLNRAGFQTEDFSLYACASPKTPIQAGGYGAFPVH
Protocol: Compounds to be tested are diluted in dimethyl sulfoxide to a concentration of 0.1 mM. These are serially diluted 15 μL into 30 μL of dimethyl sulfoxide seven times in 96 well plates for a total of 8 dilution points, and for each dilution point 1 μL is added to a well of an assay plate. […] The reaction is started with addition of 10 μL of 200 μM ATP (i.e. final 100 μM ATP). After incubation of the kinase reaction for 45 minutes at room temperature, 5 μL/well of Stop Solution is added (25 mM Hepes pH 7.5, 100 mM EDTA, 0.01% BSA with donor beads (Streptavidin coated beads, Perkin Elmer), acceptor beads (Protein A coated, Perkin Elmer), and anti-phosphor MEK1/2 antibody (CellSignal), each at final concentration 10 μg/mL). The plates are incubated for 3 hours at room temperature and read on Envision reader (Perkin Elmer). Phosphorylation of Mek1 results in binding of the anti-phosphor-MEK1/2antibody and association of the donor and acceptor beads such that signal correlates with kinase activity. The signal versus compound concentration is used to determine the IC50.
The in vitro RAF kinase activities were determined by measuring phosphorylation of a biotinylated substrate peptide as described previously (Tsai, J. et al. Proc Natl Acad Sci USA 105, 3041-3046 (2008)). Compounds of formula (I), e.g., compound A, was also tested against a panel of 287 kinases at concentrations of 1 μM in duplicate. Kinases inhibited by over 50% were followed up by IC50 determination. The 287 kinases represent all major branches of the kinome phylogenetic tree. The inhibition screen of 287 kinases was carried out under contract as complementary panels at Invitrogen (Life Technologies, Wis., USA) SelectScreen™ profiling service, DiscoverX (CA, USA) KINOMEScan™ service, and Reaction Biology Corporation (PA, USA) Kinase HotSpot℠ service.

Row | SMILES | EC50 [1] | EC50 ([2]; numeric bounds) | IC50 [3] | IC50 [4] | EC50 ([2]; class symbols) | pERK activation ([1]; RAS mutant cell line B9, one hour treatment) | pERK activation ([2]; RAS mutant cell line IPC-298, one hour treatment) | pERK inhibition ([3]; BRAF V600E cell line A375)
1 | O=C(c1c(F)ccc(NS(=O)(=O)C2CCCC2)c1F)c1c[nH]c2ncncc12 [P-2028, N-[2,4-difluoro-3-(7H-pyrrolo[2,3-d]pyrimidine-5-carbonyl)phenyl]cyclopentanesulfonamide] | > 10 µM | > 10 µM | > 10 µM |  |  |  |  | 
2 | O=C(c1cccc(NS(=O)(=O)N2CCCC2)c1F)c1c[nH]c2ncnc(NCC(F)(F)F)c12 [P-2077, N-[2-fluoro-3-[4-(2,2,2-trifluoroethylamino)-7H-pyrrolo[2,3-d]pyrimidine-5-carbonyl]phenyl]pyrrolidine-1-sulfonamide] |  | > 10 µM | 0.0001 to 1 µM | 0.0001 to 1 µM |  |  |  | 
3 | CCN(C)S(=O)(=O)Nc1cccc(-c2nc(C(C)(C)C)sc2-c2ccnc(N)n2)c1F [P-0352, 5-(2-aminopyrimidin-4-yl)-2-tert-butyl-4-[3-[[ethyl(methyl)sulfamoyl]amino]-2-fluoro-phenyl]thiazole] |  |  |  |  |  | significantly reduced pERK activation; also recorded: markedly reduced pERK activation | significantly reduced pERK activation; also recorded: markedly reduced pERK activation | preserving the potent inhibitory activity; also recorded: moderate decrease in pERK IC50
4 | O=C(c1c(F)ccc(NS(=O)(=O)N2CCCC2)c1F)c1c[nH]c2ncncc12 [P-2029, N-[2,4-difluoro-3-(7H-pyrrolo[2,3-d]pyrimidine-5-carbonyl)phenyl]pyrrolidine-1-sulfonamide] | > 10 µM | > 10 µM | 0.0001 to 1 µM |  |  |  |  | 
5 | CN(C)S(=O)(=O)Nc1ccc(F)c(C(=O)c2c[nH]c3ncnc(NCC4CC4)c23)c1F [P-2048, 4-(cyclopropylmethylamino)-5-[3-(dimethylsulfamoylamino)-2,6-difluoro-benzoyl]-7H-pyrrolo[2,3-d]pyrimidine] |  | > 10 µM | 0.0001 to 1 µM | 0.0001 to 1 µM |  |  |  | 
6 | CC(C)S(=O)(=O)Nc1ccc(F)c(C(=O)c2c[nH]c3ncnc(NCC4CC4)c23)c1F [P-2047, N-[3-[4-(cyclopropylmethylamino)-7H-pyrrolo[2,3-d]pyrimidine-5-carbonyl]-2,4-difluoro-phenyl]propane-2-sulfonamide] |  |  | 0.0001 to 1 µM | 0.0001 to 1 µM |  |  |  | 
7 | CC1(C)OCC(CNc2ncnc3[nH]cc(C(=O)c4cccc(NS(=O)(=O)N5CCCC5)c4F)c23)O1 (stereo not drawn) [P-2095, N-[3-[4-[(2,2-dimethyl-1,3-dioxolan-4-yl)methylamino]-7H-pyrrolo[2,3-d]pyrimidine-5-carbonyl]-2-fluoro-phenyl]pyrrolidine-1-sulfonamide] | > 10 µM | > 10 µM | 0.0001 to 1 µM |  |  |  |  | 
8 | CC(C)S(=O)(=O)Nc1ccc(F)c(C(=O)c2c[nH]c3nccc(Cl)c23)c1F [P-2013, N-[3-(4-chloro-1H-pyrrolo[2,3-b]pyridine-3-carbonyl)-2,4-difluoro-phenyl]propane-2-sulfonamide] |  |  | 0.0001 to 1 µM | 0.0001 to 1 µM |  |  |  | 
9 | CCCC(C)S(=O)(=O)Nc1ccc(F)c(C(=O)c2c[nH]c3ncnc(NCC4CC4)c23)c1F (stereo not drawn) [P-2051, N-[3-[4-(cyclopropylmethylamino)-7H-pyrrolo[2,3-d]pyrimidine-5-carbonyl]-2,4-difluoro-phenyl]pentane-2-sulfonamide] |  |  | 0.0001 to 1 µM | 0.0001 to 1 µM |  |  |  | 

Now from value to compound, other results behind:

Row | EC50 [1] | EC50 ([2]; numeric bounds) | IC50 [3] | IC50 [4] | EC50 ([2]; class symbols) | SMILES | pERK activation ([1]; RAS mutant cell line B9, one hour treatment) | pERK activation ([2]; RAS mutant cell line IPC-298, one hour treatment) | pERK inhibition ([3]; BRAF V600E cell line A375)
10 |  | > 10 µM | 0.0001 to 1 µM | 0.0001 to 1 µM |  | CN(C)S(=O)(=O)Nc1cc(Cl)cc(C(=O)c2c[nH]c3ncc(-c4cnc(C5CC5)nc4)cc23)c1F [P-2175, 3-[5-chloro-3-(dimethylsulfamoylamino)-2-fluoro-benzoyl]-5-(2-cyclopropylpyrimidin-5-yl)-1H-pyrrolo[2,3-b]pyridine] |  |  | 
11 | > 10 µM |  | 0.0001 to 1 µM | 0.0001 to 1 µM |  | Cc1nc2c(-c3sc(C(C)(C)C)nc3-c3cccc(NS(=O)(=O)N4CCCC4)c3F)ccnc2[nH]1 [P-2126, N-[3-[2-tert-butyl-5-(2-methyl-3H-imidazo[4,5-b]pyridin-7-yl)thiazol-4-yl]-2-fluoro-phenyl]pyrrolidine-1-sulfonamide] |  |  | 
12 | > 10 µM |  | 0.0001 to 1 µM | 0.0001 to 1 µM |  | COC(=O)N[C@@H](C)CNc1nccc(-c2sc(C(C)(C)C)nc2-c2cccc(NS(=O)(=O)N3CC[C@@H](F)C3)c2F)n1 [P-2138, methyl N-[(1S)-2-[[4-[2-tert-butyl-4-[2-fluoro-3-[[(3R)-3-fluoropyrrolidin-1-yl]sulfonylamino]phenyl]thiazol-5-yl]pyrimidin-2-yl]amino]-1-methyl-ethyl]carbamate] |  |  | 
13 |  |  | 0.0001 to 1 µM | 0.0001 to 1 µM | 0.0001 to 1 µM | COC(=O)N[C@@H](C)CNc1nccc(-c2sc(-c3ccccc3)nc2-c2cccc(NS(=O)(=O)N3CC[C@@H](F)C3)c2F)n1 [P-2152, methyl N-[(1S)-2-[[4-[4-[2-fluoro-3-[[(3R)-3-fluoropyrrolidin-1-yl]sulfonylamino]phenyl]-2-phenyl-thiazol-5-yl]pyrimidin-2-yl]amino]-1-methyl-ethyl]carbamate] |  |  | 
14 |  | > 10 µM | 0.0001 to 1 µM | 0.0001 to 1 µM |  | CCN(C)S(=O)(=O)Nc1cc(Cl)cc(-c2cn(C(C)C)nc2-c2ccnc(NC[C@H](C)NC(=O)OC)n2)c1F [P-2164, methyl N-[(1S)-2-[[4-[4-[5-chloro-3-[[ethyl(methyl)sulfamoyl]amino]-2-fluoro-phenyl]-1-isopropyl-pyrazol-3-yl]pyrimidin-2-yl]amino]-1-methyl-ethyl]carbamate] |  |  | 
15 | > 10 µM | > 10 µM |  | 0.0001 to 1 µM |  | Cc1cc(NS(=O)(=O)N2CC[C@@H](F)C2)c(F)c(C(=O)c2c[nH]c3ncc(-c4cnc(C5CC5)nc4)cc23)c1 [P-2182, (3R)-N-[3-[5-(2-cyclopropylpyrimidin-5-yl)-1H-pyrrolo[2,3-b]pyridine-3-carbonyl]-2-fluoro-5-methyl-phenyl]-3-fluoro-pyrrolidine-1-sulfonamide] |  |  | 
16 |  |  | 0.0001 to 1 µM | 0.0001 to 1 µM | 0.0001 to 1 µM | COC(=O)N[C@@H](C)CNc1nccc(-c2nn(C(C)C)cc2-c2cc(Cl)cc(NS(=O)(=O)N3CCCC3)c2F)n1 [P-2160, methyl N-[(1S)-2-[[4-[4-[5-chloro-2-fluoro-3-(pyrrolidin-1-ylsulfonylamino)phenyl]-1-isopropyl-pyrazol-3-yl]pyrimidin-2-yl]amino]-1-methyl-ethyl]carbamate] |  |  | 
17 |  | > 10 µM | 0.0001 to 1 µM | 0.0001 to 1 µM |  | O=C(c1cccc(NS(=O)(=O)N2CCCC2)c1F)c1c[nH]c2ncnc(NCCC(F)(F)F)c12 [P-2112, N-[2-fluoro-3-[4-(3,3,3-trifluoropropylamino)-7H-pyrrolo[2,3-d]pyrimidine-5-carbonyl]phenyl]pyrrolidine-1-sulfonamide] |  |  | 
